Consider two compounds from patent EP0891772A2, “Therapeutic agent for rheumatic disease comprising nonsteroidal anti-inflamatory drug and phenylpropionic acid derivative” (SANTEN PHARMACEUTICAL CO., LTD., priority 1997, dated 1999).

Structures are written as SMILES.

The subject of assay [1] is type II collagen-induced arthritis. In words: type II collagen-induced arthritis model. The conditions noted are these: for bone destruction score: 26th day after the secondary sensitization. The assay is classed as in vivo, DBA/1 strain mouse. As for the experimental part: A solution (4 mg/ml) of bovine joint cartilage type II collagen in diluted hydrochloric acid was mixed with Freund' s complete adjuvant of the same volume to prepare an emulsion. As a primary sensitization, this emulsion was injected intra-dermally into tail root site of DBA/1 strain mouse at a dose of 100 µl (corresponding to 200 µg of the type II collagen per mouse). After 21 days from the primary sensitization, 100 µl of this emulsion was injected intra-dermally into a tail root site of the mouse again (secondary sensitization). […] 5% carboxymethyl cellulose and a nonsteroidal anti-inflammatory drug was suspended in 1% methyl cellulose. With regard to the confirmation of onset of arthritis, the stage where swelling at the site of joint accompanied by erythema was defined as the onset of arthritis. With regard to degree of the arthritis, scoring was conducted for each paw according to the evaluating criterion for arthritis grade as mentioned below and the total point for four paws was used as an arthritic score. • 0: no change • 1: weak swelling and weak erythema were observed • 2: weak swelling and erythema were observed • 3: strong swelling and erythema were observed • 4: strong swelling and erythema accompanied by bone erosion were observed Then, on the 26th day after the secondary sensitization, X-ray photographs of the joints of four paws were taken.

For assay [2], the system named is hepatic allotransplantation. The conditions noted are these: rats; Surg. Today, 26, 419-426(1996); cited from earlier work.
In assay [3] the test system is adjuvant-induced arthritis. In words: adjuvant-induced arthritis model. The assay is classed as in vivo, rat. Here is the method: A suspension (0.6 mg/100 µl) of Mycobacterium butyricum (adjuvant) in liquid paraffin was injected subcutaneously into a left hind paw of rat (male; nine weeks age; body weight being about 240 grams) to induce arthritis.
Incidentally, as a control, a suspension not containing a test compound was administered by the same manner as above.

[4] abbreviates: present compound alone 100 mg/kg, oral once a day.
The mark [5] stands for this setting: diclofenac sodium alone 3 mg/kg, oral once a day.

Regarding `COc1ccc(/C=C/CCCCOc2cccc(OCCCCC(=O)O)c2CCC(=O)O)cc1` [the present compound, 3-[1-[6-(4-methoxyphenyl)hex-5E-enyl]oxy-3-(4-carboxylbutyl)oxybenzen-2-yl]propionic acid], the arthritic score result in assay [1] (setting [4]) is on record as “improvement was recognized slightly”; in assay [1] (present compound alone 200 mg/kg, oral once a day, tendency = slight improvement as at 100 mg/kg), “Such a tendency was unchanged”. In addition, the incidence of arthritis result is given as “nearly the same proceeding as in the control group” in assay [1] (setting [4]) and “Such a tendency was unchanged” in assay [1] (present compound alone 200 mg/kg, oral once a day, tendency = nearly as control, as at 100 mg/kg). Moreover, the bone destruction score entry in assay [1] (present compound alone 100 mg/kg) is “no suppressive effect was recognized at all”; in assay [1] (present compound alone 200 mg/kg), “the suppressive effect was hardly recognized”. In addition, the “immunosuppressive action to hepatic allotransplantation” value in assay [2] is recorded as “shows an immunosuppressive action”. In addition, the “pathohistological test: bone destruction, edema, etc.” value in assay [3] (present compound alone) was “nearly no suppressive effect”. The “edema of left hindpaw (paw volume)” value in assay [3] (present compound alone 100 mg/kg, oral once a day from the 14th day after adjuvant) is “nearly no suppressive effect on edema was recognized”.

Consider `O=C(O)Cc1ccccc1Nc1c(Cl)cccc1Cl` [diclofenac sodium, reference compound], for which, in assay [1] (setting [5]), the arthritic score entry is “improvement in the arthritic score was recognized” and the “effect of delaying the onset of arthritis” value is listed as “no effect of delaying the onset of arthritis was recognized”. The bone destruction score result in assay [1] (diclofenac sodium alone 3 mg/kg) is given as “a suppressive effect was recognized but the instant effect was far weaker than in the case of the combination administration”.
